{
  "source": "patent US20210361224A1",
  "about": "“BIOLOGICAL GAS (VOCs) MEASURMENT DEVICE” (National University Corporation Tokyo Medical and Dental …, priority 2017, published 2021)",
  "key": {"[1]": {"details": "palm of hand; 0.4 g of ethanol per kilogram of body weight orally ingested; measured 10 to 40 minutes after drinking"}, "[2]": {"details": "compared with ethanol in exhaled breath, test subject ingested 0.4 g/kg of body weight of ethanol by drinking"}},
  "note": "Like-named read-outs stand apart in the source and are kept apart here.",
  "data": [
    {"smiles": "CCO", "note": "[ethanol]", "values": [
      {"measurement": "time after drinking at which concentration of ethanol released from the skin reached a peak value", "setting": "[1]", "value": 32, "unit": "min"},
      {"measurement": "delay until the amount of ethanol contained in skin gas peaks", "setting": "[2]; collector attached to back of hand", "value": "approximately 23 minutes"},
      {"measurement": "delay until the amount of ethanol contained in skin gas peaks", "setting": "[2]; collector attached to wrist on the palm side", "value": "approximately 18 minutes"}
    ]}
  ]
}
